Tested on: 377384-186-R-J1-PDC complex spheroid viability
Assay: Anticancer human tumor 377384-186-R-J1-PDC patient-derived pancreatic carcinoma cell line growth inhibition [CLK]
Details: for IC50: curve of first compound; for viability, T/C: stronger effect = lower value; active = viability on the fitted dose curve at most 10% of control; inactive = the rest
Outline: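 Multi-cell-type spheroids combined patient-derived tumor cells with HUVEC endothelial cells and human mesenchymal stem cells. Paired agents were dosed in half-log steps down from about clinical Cmax, or from 10 microM where Cmax was unknown.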

[1] = second compound 0.0316 µM, first compound 0.00316 µM
[2] = second compound 0.0316 µM, first compound 0.01 µM
[3] = second compound 0.0316 µM, first compound 0.0316 µM
[4] = second compound 0.0316 µM, first compound 0.1 µM
[5] = second compound 0.1 µM, first compound 0.00316 µM
[6] = second compound 0.1 µM, first compound 0.01 µM
[7] = second compound 0.1 µM, first compound 0.0316 µM
[8] = second compound 0.1 µM, first compound 0.1 µM
[9] = second compound 0.316 µM, first compound 0.00316 µM
[10] = second compound 0.316 µM, first compound 0.01 µM
[11] = second compound 0.316 µM, first compound 0.0316 µM
[12] = second compound 0.316 µM, first compound 0.1 µM
[13] = second compound 1 µM, first compound 0.00316 µM
[14] = second compound 1 µM, first compound 0.01 µM
[15] = second compound 1 µM, first compound 0.0316 µM
[16] = second compound 1 µM, first compound 0.1 µM
[17] = second compound 3.16 µM, first compound 0.00316 µM
[18] = second compound 3.16 µM, first compound 0.01 µM
[19] = second compound 3.16 µM, first compound 0.0316 µM
[20] = second compound 3.16 µM, first compound 0.1 µM
[21] = second compound 10 µM, first compound 0.00316 µM
[22] = second compound 10 µM, first compound 0.01 µM
[23] = second compound 10 µM, first compound 0.0316 µM
[24] = second compound 10 µM, first compound 0.1 µM
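Note: spheroids exposed to agents for 7 days before reading.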
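Throughout, for viability, T/C: luminescence signal used as a stand-in for viable cells.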

CCc1c2c(nc3ccc(O)cc13)-c1cc3c(c(=O)n1C2)COC(=O)[C@]3(O)CC + CN1CCN(c2cc(C(=O)Nc3cc4cc(-c5cnn(C)c5)ccc4cn3)ccn2)CC1
< 3.16 nM: IC50 (second compound 0.0316 µM) | IC50 (second compound 0.1 µM) | IC50 (second compound 0.316 µM) | IC50 (second compound 1 µM) | IC50 (second compound 3.16 µM) | IC50 (second compound 10 µM)
inactive: viability, T/C [1] 38.2% | viability, T/C [2] 16.4% | viability, T/C [5] 31.7% | viability, T/C [6] 18.6% | viability, T/C [9] 18.3% | viability, T/C [10] 15%
active: viability, T/C [3] 9% | viability, T/C [4] 3.5% | viability, T/C (second compound 0.0316 µM, first compound 0.316 µM) 2% | viability, T/C (second compound 0.0316 µM, first compound 1 µM) 0.73% | viability, T/C [7] 8.13% | viability, T/C [8] 3.62% | viability, T/C (second compound 0.1 µM, first compound 0.316 µM) 1.47% | viability, T/C (second compound 0.1 µM, first compound 1 µM) 0.71% | viability, T/C [11] 7.22% | viability, T/C [12] 4.37% | viability, T/C (second compound 0.316 µM, first compound 0.316 µM) 1.79% | viability, T/C (second compound 0.316 µM, first compound 1 µM) 0.66% | viability, T/C [13] 0.56% | viability, T/C [14] 0.36% | viability, T/C [15] 1.07% | viability, T/C [16] 0.19% | viability, T/C (second compound 1 µM, first compound 0.316 µM) 0.14% | viability, T/C (second compound 1 µM, first compound 1 µM) 0.3% | viability, T/C [17] 0.23% | viability, T/C [18] 0.3% | viability, T/C [19] 0.53% | viability, T/C [20] 0.25% | viability, T/C (second compound 3.16 µM, first compound 0.316 µM) 0.38% | viability, T/C (second compound 3.16 µM, first compound 1 µM) 0.85% | viability, T/C [21] 0.27% | viability, T/C [22] 1.05% | viability, T/C [23] 0.38% | viability, T/C [24] 0.27% | viability, T/C (second compound 10 µM, first compound 0.316 µM) 0.23% | viability, T/C (second compound 10 µM, first compound 1 µM) 0.35%

Cn1ncnc1[C@H]1c2n[nH]c(=O)c3cc(F)cc(c23)N[C@@H]1c1ccc(F)cc1 + CN1CCN(c2cc(C(=O)Nc3cc4cc(-c5cnn(C)c5)ccc4cn3)ccn2)CC1
< 0.316 nM: IC50 (second compound 0.316 µM) | IC50 (second compound 1 µM) | IC50 (second compound 3.16 µM) | IC50 (second compound 10 µM)
> 100 nM: IC50 (second compound 0.0316 µM)
inactive: viability, T/C (second compound 0.0316 µM, first compound 0.000316 µM) 90.4% | viability, T/C (second compound 0.0316 µM, first compound 0.001 µM) 77.8% | viability, T/C [1] 74.8% | viability, T/C [2] 65.6% | viability, T/C [3] 55.4% | viability, T/C [4] 52.1% | viability, T/C (second compound 0.1 µM, first compound 0.000316 µM) 88.1% | viability, T/C (second compound 0.1 µM, first compound 0.001 µM) 81.2% | viability, T/C [5] 70.4% | viability, T/C [6] 58.9% | viability, T/C [7] 53.9% | viability, T/C [8] 46% | viability, T/C (second compound 0.316 µM, first compound 0.000316 µM) 21.2% | viability, T/C (second compound 0.316 µM, first compound 0.001 µM) 23.7% | viability, T/C [9] 25.9% | viability, T/C [10] 22.4% | viability, T/C [11] 21.9% | viability, T/C [12] 18.6%
active: viability, T/C (second compound 1 µM, first compound 0.000316 µM) 0.86% | viability, T/C (second compound 1 µM, first compound 0.001 µM) 0.77% | viability, T/C [13] 1.08% | viability, T/C [14] 0.85% | viability, T/C [15] 0.82% | viability, T/C [16] 1.53% | viability, T/C (second compound 3.16 µM, first compound 0.000316 µM) 0.25% | viability, T/C (second compound 3.16 µM, first compound 0.001 µM) 0.59% | viability, T/C [17] 1.07% | viability, T/C [18] 0.33% | viability, T/C [19] 0.69% | viability, T/C [20] 0.48% | viability, T/C (second compound 10 µM, first compound 0.000316 µM) 0.45% | viability, T/C (second compound 10 µM, first compound 0.001 µM) 1.52% | viability, T/C [21] 0.56% | viability, T/C [22] 1.45% | viability, T/C [23] 0.51% | viability, T/C [24] 0.39%
50 nM: IC50 (second compound 0.1 µM)
